Data from patent US4410516A, “1-N(αHydroxy-ω-aminoalkanoyl) derivatives of 5,3',4'-trideoxy- or 5,3', 4'-trideoxy-6'-N- methyl- or 5, 3', 4',6"-tetradeoxykannamyci B and production thereof” (Zaidan Hojin Biseibutsu Kagaku Kenkyu Kai, priority 1981, dated 1983).
Read-outs that look alike come from different tables or passages of the source.

Key:
Format in all cases: cell-based
[1] = test system: Pseudomonas aeruginosa K-Ps102; assay: Minimum inhibitory concentration, serial dilution on nutrient agar
[2] = test system: Pseudomonas aeruginosa ROS134/PU21; assay: as above; conditions: ROS134/PU21, 18 h
[3] = test system: Pseudomonas aeruginosa GN315; assay: as above
[4] = test system: Pseudomonas aeruginosa No. 12; assay: as above
Escherichia coli NIHJ = assay: as above; conditions: nutrient agar, 37° C., 18 hours incubation, read-out: MIC
Serratia marcescens = assay: as above; conditions: 37° C., 18 hours incubation
[5] = test system: Pseudomonas maltophilia GN907; assay: as above; conditions: Stenotrophomonas maltophilia, 37° C., 18 hours incubation
[6] = test system: Escherichia coli K-12 R 388; assay: as above; conditions: K12R388, 18 h
Escherichia coli JR255 = assay: as above; conditions: JR255, nutrient agar, 37° C., 18 hours incubation, read-out: MIC
Providencia Pv 16 = assay: as above; conditions: PV16, 37° C., 18 hours incubation
[7] = test system: Pseudomonas aeruginosa H11; assay: as above
Proteus vulgaris OX19 = assay: as above; conditions: 37° C., 18 hours incubation
[8] = test system: Staphylococcus aureus AP01; assay: as above; conditions: 37° C., 18 hours incubation
[9] = test system: Staphylococcus aureus Smith; assay: as above; conditions: 37° C., 18 hours incubation
[10] = test system: Escherichia coli K-12 ML 1629; assay: as above; conditions: K12ML1629, nutrient agar, 37° C., 18 hours incubation, read-out: MIC
Serratia 4 = assay: as above; conditions: 37° C., 18 hours incubation
Sarcina lutea PCI 1001 = assay: as above; conditions: Micrococcus luteus, PCI1001; nutrient agar, 37° C., 18 hours incubation; read-out: MIC
Escherichia coli K-12 R5 = assay: as above; conditions: K12R5, 18 h
[11] = test system: Micrococcus flavus FDA 16; assay: as above; conditions: FDA16, 18 h
Bacillus anthracis = assay: microbe, parasite or virus in culture; conditions: 18 h
[12] = test system: Escherichia coli K-12 ML 1410; assay: Minimum inhibitory concentration, serial dilution on nutrient agar
Salmonella typhi T-63 = assay: as above; conditions: Salmonella enterica, 18 h
[13] = test system: Pseudomonas aeruginosa 21-75; assay: as above; conditions: 2175, 37° C., 18 hours incubation
[14] = test system: Bacillus cereus ATCC 10702; assay: as above; conditions: ATCC10702, nutrient agar, 37° C., 18 hours incubation, read-out: MIC
[15] = test system: Escherichia coli JR66/W677; assay: as above
Escherichia coli K-12 = assay: as above; conditions: K12, nutrient agar, 37° C., 18 hours incubation, read-out: MIC
[16] = test system: Pseudomonas aeruginosa TI-13; assay: as above
[17] = test system: Klebsiella pneumoniae PCI 602; assay: as above; conditions: PCI602, nutrient agar, 37° C., 18 hours incubation, read-out: MIC
[18] = test system: Escherichia coli K-12 LA 290 R56; assay: as above; conditions: K12LA290R56, 18 h
[19] = test system: Pseudomonas aeruginosa B-13; assay: as above; conditions: B13, 37° C., 18 hours incubation
[20] = test system: Bacillus subtilis PCI 219; assay: as above; conditions: PCI219, 37° C., 18 hours incubation
[21] = test system: Pseudomonas aeruginosa H9; assay: as above
[22] = test system: Bacillus subtilis NRRL B-558; assay: as above; conditions: NRRLB558, 37° C., 18 hours incubation
[23] = test system: Staphylococcus epidermidis 109; assay: as above; conditions: Staphylococcus epidermidis, 109; nutrient agar, 37° C., 18 hours incubation; read-out: MIC
Proteus rettgeri GN466 = assay: as above; conditions: Providencia rettgeri, GN466; nutrient agar, 37° C., 18 hours incubation; read-out: MIC
[24] = test system: Mycobacterium smegmatis ATCC 607; assay: as above; conditions: Mycolicibacterium smegmatis, ATCC607; nutrient agar, 37° C., 18 hours incubation; read-out: MIC
[25] = test system: Klebsiella pneumoniae 22 #3038; assay: as above; conditions: 18 h
[26] = test system: Escherichia coli K-12 LA 290 R55; assay: as above; conditions: K12LA290R55, 18 h
[27] = test system: Pseudomonas aeruginosa 99; assay: as above
Proteus rettgeri GN311 = assay: as above; conditions: Providencia rettgeri, 37° C., 18 hours incubation
[28] = test system: Pseudomonas aeruginosa A3; assay: as above; conditions: 37° C., 18 hours incubation

Measured: MIC

CNC[C@@H]1CC[C@@H](N)[C@@H](O[C@H]2C[C@@H](O[C@H]3O[C@H](CO)[C@@H](O)[C@H](N)[C@H]3O)[C@H](NC(=O)[C@@H](O)CCN)C[C@@H]2N)O1 [AHB-trideoxyMKMB, 1-N-[(S)-4-amino-2-hydroxybutyryl]-5,3',4'-trideoxy-6'-N-methylkanamycin B]
6.25 µg/mL: Serratia marcescens | Providencia Pv 16 | Serratia 4 | Proteus rettgeri GN466
> 100 µg/mL: [5]
1.56 µg/mL: [1]; KPS102, 18 h | [4]; NO.12, 18 h | [11] | [12]; K12ML1410, 18 h | Salmonella typhi T-63 | [15]; JR66/W677, 18 h | [16]; TI13, 18 h | [21]; H9, 18 h | [25] | [26]
3.13 µg/mL: [3]; GN315, 18 h | Escherichia coli K-12 R5 | [27]; Pseudomonas aeruginosa, 99, 18 h
12.5 µg/mL: [7]; H11, nutrient agar, 37° C., 18 hours incubation, read-out: MIC | [13] | [19]
< 0.2 µg/mL: Proteus vulgaris OX19 | [9] | Bacillus anthracis | [20] | [22] | [23] | [24]
50 µg/mL: [2] | Proteus rettgeri GN311
0.39 µg/mL: [6] | [8] | Sarcina lutea PCI 1001 | [14]
0.78 µg/mL: Escherichia coli NIHJ | Escherichia coli JR255 | [10] | Escherichia coli K-12 | [17] | [18]

NCC(O)C(=O)N[C@@H]1C[C@H](N)[C@@H](O[C@H]2O[C@H](CN)CC[C@H]2N)C[C@H]1O[C@H]1O[C@H](CO)[C@@H](O)[C@H](N)[C@H]1O (stereo partly drawn) [AHP-trideoxyKMB, 1-N-[(RS)-3-amino-2-hydroxypropionyl]-5,3',4'-trideoxykanamycin B]
100 µg/mL: Escherichia coli K-12 R5
0.78 µg/mL: Proteus vulgaris OX19 | [8] | Sarcina lutea PCI 1001 | [14] | [28] | [23]
3.13 µg/mL: [1]; KPS102, nutrient agar, 37° C., 18 hours incubation, read-out: MIC | [4]; NO.12, nutrient agar, 37° C., 18 hours incubation, read-out: MIC | [10] | [15]; JR66/W677, nutrient agar, 37° C., 18 hours incubation, read-out: MIC | [16]; TI13, nutrient agar, 37° C., 18 hours incubation, read-out: MIC | [21]; H9, nutrient agar, 37° C., 18 hours incubation, read-out: MIC | Proteus rettgeri GN466 | [26] | [27]; Pseudomonas aeruginosa, 99, nutrient agar, 37° C., 18 hours incubation, read-out: MIC
25 µg/mL: Serratia marcescens | Providencia Pv 16 | Serratia 4 | Proteus rettgeri GN311
50 µg/mL: [3]; GN315, nutrient agar, 37° C., 18 hours incubation, read-out: MIC | Salmonella typhi T-63
< 0.2 µg/mL: [9] | Bacillus anthracis | [20] | [22]
12.5 µg/mL: [13] | [19]
1.56 µg/mL: Escherichia coli NIHJ | [6] | Escherichia coli JR255 | [12]; K12ML1410, nutrient agar, 37° C., 18 hours incubation, read-out: MIC | Escherichia coli K-12 | [17] | [18]
0.2 µg/mL: [24]
6.25 µg/mL: [7]; H11, 18 h | [11] | [25]
> 100 µg/mL: [2] | [5]
